Measurements taken from paper PMC4102788, “Linking off-target kinase pharmacology to the differential cellular effects observed among PARP inhibitors” (Oncotarget, 2014).

Key:
[1] = 40 mg single daily dose; cited from earlier work
[2] = test system: STAT3 phosphorilation; set-up: method as in PMID 22678161; details: at 5 µM; cited from earlier work
[3] = target: T1, human CDK9 kinase (Homo sapiens, UniProt P50750); assay: Human CDK9 kinase in vitro inhibition assay (Cerep, LANCE); format: biochemical; details: human recombinant enzyme, 10 µM ATP
T1 construct: purchased Cerep (CRO that ran the assay) 2912 (781-cdk9); host or cells: Sf9 cells
Excerpt: (§1) Rucaparib, veliparib and olaparib were purchased from Selleckchem. Kinase in vitro assays were perfomed at Cerep (www.cerep.fr) by measuring the phosphorylation of appropriate peptide substrates by human recombinant enzymes and using FRET as a detection method (a detailed description of each kinase assay is available in online supplementary data).
Human CDK9 kinase in vitro inhibition assay
All details for the CDK9 in vitro assay can be consulted in the Cerep Catalogue available online under references 2912 (781-cdk9): http://www.cerep.fr/cerep/users/pages/catalog/Affiche_CondExp_Test.asp?test=2912 Evaluation of the effects of compounds on the activity of the human CDK9 quantified by measuring the phosphorylation of the substrate Ulight- […]
mixture is incubated for 90 min at room temperature. […] After 60 more min, the fluorescence transfer is measured at λex=337 nm, λem=620 nm and λem=665 nm using a microplate reader (Envision, Perkin Elmer). The enzyme activity is determined by dividing the signal measured at λem=665 nm by that measured at λem=620 nm (ratio). The results are expressed as a percent inhibition of the control enzyme activity. The standard inhibitory reference compound is staurosporine, which is tested in each experiment at several concentrations to obtain an inhibition curve from which its IC50 value is calculated. […]

[4] = target: T2, human ALK kinase (Homo sapiens, UniProt Q9UM73); assay: Human ALK kinase in vitro inhibition assay (Cerep, LANCE); format: biochemical; details: human recombinant enzyme, 10 µM ATP
T2 construct: purchased Cerep (CRO that ran the assay) 2678 (768-alk)
Excerpt: as §1
Human CDC7 kinase in vitro inhibition assay
All details for the CDC7 in vitro assay can be consulted in the Cerep Catalogue available online under references 2764 (749-cdc7): […]
http://www.cerep.fr/cerep/users/pages/catalog/Affiche_CondExp_Test.asp?test=2764 Evaluation of the effects of compounds on the activity of the human CDC7/ASK quantified by measuring the phosphorylation of the substrate […]
Ulight-[…] […]
labeled with europium chelate is added. After 60 more min, the fluorescence transfer is measured at λex=337 nm, λem=620 nm and λem=665 nm using a microplate reader (Envision, Perkin Elmer). The enzyme activity is determined by dividing the signal measured at λem=665 nm by that measured at λem=620 nm (ratio). The results are expressed as a percent inhibition of the control enzyme activity. […]
ALK quantified by measuring the phosphorylation of the substrate Ulight- […]
europium chelate is added. After 60 more min, the fluorescence transfer is measured at […]
λex=337 nm, λem=620 nm and λem=665 nm using a microplate reader (Envision, […]

T2 sequence (Q9UM73 19-1620): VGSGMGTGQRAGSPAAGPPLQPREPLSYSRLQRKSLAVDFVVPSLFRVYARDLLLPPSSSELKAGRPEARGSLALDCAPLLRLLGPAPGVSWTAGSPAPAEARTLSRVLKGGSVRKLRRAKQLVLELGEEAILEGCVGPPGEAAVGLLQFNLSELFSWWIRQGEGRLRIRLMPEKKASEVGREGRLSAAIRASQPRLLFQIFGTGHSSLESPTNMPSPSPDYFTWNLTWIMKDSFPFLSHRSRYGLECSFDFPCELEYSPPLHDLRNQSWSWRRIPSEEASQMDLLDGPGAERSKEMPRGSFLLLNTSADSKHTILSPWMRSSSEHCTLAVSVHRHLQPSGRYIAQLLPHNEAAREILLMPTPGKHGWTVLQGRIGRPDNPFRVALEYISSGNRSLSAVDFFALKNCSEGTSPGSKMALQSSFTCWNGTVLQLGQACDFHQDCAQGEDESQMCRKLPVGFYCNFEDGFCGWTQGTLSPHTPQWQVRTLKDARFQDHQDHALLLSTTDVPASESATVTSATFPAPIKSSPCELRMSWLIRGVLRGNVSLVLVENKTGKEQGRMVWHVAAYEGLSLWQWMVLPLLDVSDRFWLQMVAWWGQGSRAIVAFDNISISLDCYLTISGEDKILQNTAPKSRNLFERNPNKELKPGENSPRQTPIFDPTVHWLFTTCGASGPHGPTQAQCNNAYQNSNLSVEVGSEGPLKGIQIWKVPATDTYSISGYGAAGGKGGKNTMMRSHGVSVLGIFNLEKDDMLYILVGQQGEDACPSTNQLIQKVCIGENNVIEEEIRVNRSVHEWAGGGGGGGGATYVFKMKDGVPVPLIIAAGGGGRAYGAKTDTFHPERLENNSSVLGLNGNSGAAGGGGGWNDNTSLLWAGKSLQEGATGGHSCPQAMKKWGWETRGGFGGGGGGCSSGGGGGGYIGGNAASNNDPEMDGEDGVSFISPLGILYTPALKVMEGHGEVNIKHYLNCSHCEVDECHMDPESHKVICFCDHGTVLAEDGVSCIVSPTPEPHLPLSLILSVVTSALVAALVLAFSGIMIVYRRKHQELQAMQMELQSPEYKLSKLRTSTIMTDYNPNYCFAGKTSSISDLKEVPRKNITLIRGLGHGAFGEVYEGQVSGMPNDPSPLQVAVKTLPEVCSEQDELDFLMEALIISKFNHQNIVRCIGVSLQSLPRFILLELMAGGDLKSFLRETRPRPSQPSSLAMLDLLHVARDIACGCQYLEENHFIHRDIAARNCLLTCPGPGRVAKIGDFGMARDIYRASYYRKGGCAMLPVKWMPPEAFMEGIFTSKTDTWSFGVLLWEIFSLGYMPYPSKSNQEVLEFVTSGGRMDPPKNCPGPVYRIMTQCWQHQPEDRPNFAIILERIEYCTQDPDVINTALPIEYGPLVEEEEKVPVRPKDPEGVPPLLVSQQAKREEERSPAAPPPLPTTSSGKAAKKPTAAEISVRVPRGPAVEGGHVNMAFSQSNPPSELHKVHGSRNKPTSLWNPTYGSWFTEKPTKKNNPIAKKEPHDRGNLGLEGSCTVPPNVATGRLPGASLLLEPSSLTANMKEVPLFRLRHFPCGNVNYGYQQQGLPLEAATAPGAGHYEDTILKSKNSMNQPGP
T1 sequence (P50750 whole entry): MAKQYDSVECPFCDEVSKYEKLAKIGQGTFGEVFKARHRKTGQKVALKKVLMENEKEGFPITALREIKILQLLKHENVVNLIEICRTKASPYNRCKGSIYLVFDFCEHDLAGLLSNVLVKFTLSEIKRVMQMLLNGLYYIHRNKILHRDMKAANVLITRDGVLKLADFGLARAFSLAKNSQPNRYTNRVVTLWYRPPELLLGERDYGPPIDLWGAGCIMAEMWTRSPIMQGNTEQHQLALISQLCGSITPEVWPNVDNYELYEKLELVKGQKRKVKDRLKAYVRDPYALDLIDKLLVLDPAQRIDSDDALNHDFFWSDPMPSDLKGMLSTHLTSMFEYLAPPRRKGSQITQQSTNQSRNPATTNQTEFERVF
T1 sequence (O60563 whole entry partner): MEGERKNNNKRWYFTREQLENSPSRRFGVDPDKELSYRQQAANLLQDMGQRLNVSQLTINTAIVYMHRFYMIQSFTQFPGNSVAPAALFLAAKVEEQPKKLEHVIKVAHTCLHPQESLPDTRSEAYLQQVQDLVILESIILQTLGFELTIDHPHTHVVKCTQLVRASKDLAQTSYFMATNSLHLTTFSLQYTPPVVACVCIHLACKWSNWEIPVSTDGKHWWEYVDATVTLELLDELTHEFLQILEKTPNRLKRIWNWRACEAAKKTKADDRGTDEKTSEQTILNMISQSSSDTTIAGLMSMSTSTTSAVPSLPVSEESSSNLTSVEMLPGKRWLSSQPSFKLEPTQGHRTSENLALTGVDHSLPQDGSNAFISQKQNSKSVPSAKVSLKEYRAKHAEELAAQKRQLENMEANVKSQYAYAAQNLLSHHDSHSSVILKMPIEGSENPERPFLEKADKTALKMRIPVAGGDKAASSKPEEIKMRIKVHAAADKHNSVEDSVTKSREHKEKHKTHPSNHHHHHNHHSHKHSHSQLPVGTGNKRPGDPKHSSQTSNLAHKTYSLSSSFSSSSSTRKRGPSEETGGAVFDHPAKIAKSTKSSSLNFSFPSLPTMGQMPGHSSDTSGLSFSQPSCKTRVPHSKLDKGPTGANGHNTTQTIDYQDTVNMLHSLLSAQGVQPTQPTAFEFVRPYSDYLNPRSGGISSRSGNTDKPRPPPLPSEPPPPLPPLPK

Question: For `CNCc1ccc(-c2[nH]c3cc(F)cc4c3c2CCNC4=O)cc1` [rucaparib], which “highest peak plasma concentration” value [1] is on record?
Answer: around 2 µM

Question: And the “effect on STAT3 phosphorilation” value [2]?
Answer: inhibit STAT3 phosphorilation

Question: What about the IC50 [3] of the same compound?
Answer: 2.7 µM

Question: What about the IC50 [4] of the same compound?
Answer: 18 µM
